Starred links: 1 amine or outer side, 2 acyl side, 3 side chain; linkers in the order of their positions; H or OH if unused. Positions of bridges follow the written chain, without caps; N, C: chain ends. Non-standard residues stand in square brackets, D forms with d. Residues, ends and D or L forms follow the SMILES beside them. Groups on a side chain read outwards from the residue. *: point of attachment. Phe(4-(1-Me-pyrazol-4-yl)) = Cn1cc(-c2ccc(C[C@H](N)C(=O)O)cc2)cn1; NMeAla(isoquinolin-7-yl) = CN[C@@H](Cc1ccc2ccncc2c1)C(=O)O; DOTA = O=C(O)CN1CCN(CC(=O)O)CCN(CC(=O)*)CCN(CC(=O)O)CC1; Phe(4-CH2COOH) = N[C@@H](Cc1ccc(CC(=O)O)cc1)C(=O)O; 3Pal(6-Ph) = N[C@@H](Cc1ccc(-c2ccccc2)nc1)C(=O)O; Phe(4-COOH) = N[C@@H](Cc1ccc(C(=O)O)cc1)C(=O)O; Phe(4-CH2NH2) = NCc1ccc(C[C@H](N)C(=O)O)cc1; Piperazinyl(4-CH2COOH) = O=C(O)CN1CCN(*)CC1; NMe2Nal = CN[C@@H](Cc1ccc2ccccc2c1)C(=O)O; AEF = NCCOc1ccc(C[C@H](N)C(=O)O)cc1; NMeI = CC[C@H](C)[C@H](NC)C(=O)O; NMeQ = CN[C@@H](CCC(N)=O)C(=O)O; NMehSer = CN[C@@H](CCO)C(=O)O; NMeK = CN[C@@H](CCCCN)C(=O)O; NMeC = CN[C@@H](CS)C(=O)O; Carboxymethyl = O=C(O)C*; NMeA = CN[C@@H](C)C(=O)O; CO = O=C([*:1])[*:2]
These molecules were tested against Human Glypican3-Fc (Homo sapiens, UniProt P51654) (assay: SPR binding to Glypican-3, Method B-2 (Glypican3-Fc captured by anti-human IgG (Fc) antibody on CM3 chip)). Conditions: SPR method B-2.
Method: A CM3 sensor chip (Cytiva) was inserted into a Biacore T200 (Cytiva), primed three times with a running buffer: HBS-P-+, pH 7.4 (Cytiva), and equilibrated at a flow rate of 30 μL/min. Using the Anti-Fc Capture Kit (Cytiva), 50 LL each of 60 mM EDC solution (Cytiva) and 650 mM NHS solution (Cytiva) were mixed, and then reacted at a flow rate of 10 μL/min for 420 seconds, 150 μL of […] Anti-human IgG (Fc) Antibody solution was prepared by diluting with 10 mM acetic acid solution (pH 5.0), reacted at a flow rate of 10 μL/min for 420 seconds, and immobilized on a CM3 sensor chip. After immobilization, 1.0 M ethanolamine aqueous solution (Cytiva) was allowed to react for 420 seconds at a flow rate of 10 μL/min for capping. Human Glypican3-Fc (ACRO Biosystems, GP3-H5258) was allowed to react for 60 seconds at a flow rate of 10 μL/min. After capturing human Glypican3-Fc, a peptide solution prepared to 10 mM in DMSO solution was diluted with a running buffer to a final concentration of 10 μM. After that, 5 serial dilution series (100 nM, 50 nM, 25 nM, 10 nM, 5 nM) of peptide solutions were prepared. Using the above samples, peptide kinetics for Glypican3 was obtained by SPR measurement. Kinetics evaluation of Glypican3 was performed by SPR measurements at a flow rate of 10 μL/min. setting the association time to 120 seconds and the disassociation time to 600 seconds.
The obtained data by Method B-1, Method B-2, Method B-3 and Method B-4 were analyzed by follow. Single Cycle Kinetics was used as the kinetics evaluation model, and curve fitting was performed using Biacore T200 Evaluation Software Version 3.0 (Cytiva). The obtained sensorgram was subjected to curve fitting by the method of least squares and obtained KD values of the macrocyclic peptides in this disclosure for Glypican 3 protein are shown in Table 18.

In order of falling Kd:
1. CC[C@H](C)[C@@H]1NC(=O)[C@H](Cc2ccc(C(=O)O)cc2)NC(=O)[C@H](CCC(N)=O)N(C)C(=O)[C@H](CC(=O)O)NC(=O)[C@H](CCC(N)=O)N(C)C(=O)[C@H](CCC(N)=O)N(C)C(=O)CSC[C@@H](C(N)=O)N(C)C(=O)[C@H](Cc2ccc(-c3cnn(C)c3)cc2)NC(=O)CNC(=O)[C@H](Cc2ccc3ccccc3c2)N(C)C(=O)[C@H](Cc2ccc(OCCNC(=O)CN3CCN(CC(=O)O)CCN(CC(=O)O)CCN(CC(=O)O)CC3)cc2)NC(=O)[C@H]([C@@H](C)CC)NC1=O [Lu-C-28] ({CH2CO}-[NMeQ][NMeQ]D[NMeQ][Phe(4-COOH)]II[AEF](DOTA)[NMe2Nal]G[Phe(4-(1-Me-pyrazol-4-yl))][NMeC]-NH2; thioether N-12)  1.8 nM
2. CC[C@H](C)[C@@H]1NC(=O)[C@H](Cc2ccc(C(=O)O)cc2)NC(=O)[C@H](CCC(N)=O)N(C)C(=O)[C@H](CC(=O)O)NC(=O)[C@H](CCC(N)=O)N(C)C(=O)[C@H](C)N(C)C(=O)CSC[C@@H](C(N)=O)N(C)C(=O)[C@H](Cc2ccc(-c3ccccc3)nc2)NC(=O)CNC(=O)[C@H](Cc2ccc3ccccc3c2)N(C)C(=O)[C@H](Cc2ccc(C(=O)O)cc2)NC(=O)[C@H]([C@@H](C)CC)NC1=O [Conjugate 2-23] ({CH2CO}-[NMeA][NMeQ]D[NMeQ][Phe(4-COOH)]II[Phe(4-COOH)][NMe2Nal]G[3Pal(6-Ph)][NMeC]-NH2; thioether N-12)  1.5 nM
3. CC[C@H](C)[C@@H]1NC(=O)[C@H](Cc2ccc(C(=O)O)cc2)NC(=O)[C@H](CCC(N)=O)N(C)C(=O)[C@H](CC(=O)O)NC(=O)[C@H](CCOC)N(C)C(=O)[C@H](CCCCNC(=O)CN2CCN(CC(=O)O)CCN(CC(=O)O)CCN(CC(=O)O)CC2)N(C)C(=O)CSC[C@@H](C(N)=O)N(C)C(=O)[C@H](Cc2ccc(-c3ccccc3)nc2)NC(=O)CNC(=O)[C@H](Cc2ccc3ccccc3c2)N(C)C(=O)[C@H](Cc2ccc(CC(=O)O)cc2)NC(=O)[C@H]([C@@H](C)CC)NC1=O [Lu-C-21] ({CH2CO}-[NMeK](DOTA)[NMehSer](Me)D[NMeQ][Phe(4-COOH)]II[Phe(4-CH2COOH)][NMe2Nal]G[3Pal(6-Ph)][NMeC]-NH2; thioether N-12)  1.04 nM
4. CC[C@H](C)[C@@H]1NC(=O)[C@H](Cc2ccc(C(=O)O)cc2)NC(=O)[C@H](CCC(N)=O)N(C)C(=O)[C@H](CC(=O)O)NC(=O)[C@H]([C@@H](C)CC)N(C)C(=O)[C@H](CCCCNC(=O)[C@H](Cc2c[nH]cn2)NC(=O)CN2CCN(CC(=O)O)CCN(CC(=O)O)CCN(CC(=O)O)CC2)N(C)C(=O)CSC[C@@H](C(N)=O)N(C)C(=O)[C@H](Cc2ccc(-c3ccccc3)nc2)NC(=O)CNC(=O)[C@H](Cc2ccc3ccncc3c2)N(C)C(=O)[C@H](Cc2ccc(OCC(=O)O)cc2)NC(=O)[C@H]([C@@H](C)CC)NC1=O [Lu-C-34] ({CH2CO}-[NMeK]([His-DOTA])[NMeI]D[NMeQ][Phe(4-COOH)]IIY(Carboxymethyl)[NMeAla(isoquinolin-7-yl)]G[3Pal(6-Ph)][NMeC]-NH2; thioether N-12)  0.8 nM
5. CC[C@H](C)[C@@H]1NC(=O)[C@H]([C@@H](C)OC)NC(=O)[C@H](Cc2ccc(C(=O)O)cc2)NC(=O)[C@H](CCC(N)=O)N(C)C(=O)[C@H](CC(=O)O)NC(=O)[C@H]([C@@H](C)CC)N(C)C(=O)[C@H](CCCCNC(=O)CN2CCN(CC(=O)O)CCN(CC(=O)O)CCN(CC(=O)O)CC2)N(C)C(=O)CSC[C@@H](C(N)=O)N(C)C(=O)[C@H](Cc2ccc(-c3ccccc3)nc2)NC(=O)CNC(=O)[C@H](Cc2ccc3ccncc3c2)N(C)C(=O)[C@H](Cc2ccc(OCC(=O)O)cc2)NC1=O [Lu-C-30] ({CH2CO}-[NMeK](DOTA)[NMeI]D[NMeQ][Phe(4-COOH)]T(Me)IY(Carboxymethyl)[NMeAla(isoquinolin-7-yl)]G[3Pal(6-Ph)][NMeC]-NH2; thioether N-12)  0.7 nM
6. CC[C@H](C)[C@@H]1NC(=O)[C@H]([C@@H](C)OC)NC(=O)[C@H](Cc2ccc(C(=O)O)cc2)NC(=O)[C@H](CCC(N)=O)N(C)C(=O)[C@H](CC(=O)O)NC(=O)[C@H](CCOC)N(C)C(=O)[C@H](CCC(N)=O)N(C)C(=O)CSC[C@@H](C(N)=O)N(C)C(=O)[C@H](Cc2ccc(-c3ccccc3)nc2)NC(=O)CNC(=O)[C@H](Cc2ccc3ccccc3c2)N(C)C(=O)[C@H](Cc2ccc(CNC(=O)N3CCN(CC(=O)O)CC3)cc2)NC1=O [Conjugate 2-20] ({CH2CO}-[NMeQ][NMehSer](Me)D[NMeQ][Phe(4-COOH)]T(Me)I[Phe(4-CH2NH2)]([CO-Piperazinyl(4-CH2COOH)])[NMe2Nal]G[3Pal(6-Ph)][NMeC]-NH2; thioether N-12)  0.7 nM
